Source: US20230017045A1, “PYRIDINE AND PYRIMIDINE CARBOXYLATE HERBICIDES AND METHODS OF USE THEREOF” (Dow AgroSciences LLC, priority 2017, published 2023)

tested on: test plant species; test: Post-emergent herbicidal activity test (greenhouse, foliar spray, visual growth reduction); assay type: in vivo; settings: post-emergence, 336 h, ALOMY: blackgrass (Alopecurus myosuroides), 140 g ai/ha, 14 days after application, read-out: Visual Growth Reduction (%) 14 Days After Application, ALOMY
Outline: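 Visual scoring 14 d after treatment (0 = no injury, 100 = complete control) against nontreated and solvent-blank plants gave percent growth reduction. Foliar application used a track sprayer delivering 187 L/ha to seedlings at first or second true leaf stage, grown at 23–29 °C day, ~15 h photoperiod.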

Q: Which pest or weed control at 140 g/ha does the source give for `O=C(O)c1nc(-c2ccc(Cl)c3c2OC(F)(F)O3)ccc1Cl` [F67, 3-Chloro-6-(7-chloro-2,2-difluorobenzo[d] [1,3]dioxol-4-yl) picolinic acid] here?
A: Its pest or weed control at 140 g/ha is 0 to 29%.

Q: Which pest or weed control at 140 g/ha does the source give for `COC(=O)c1nc(-c2ccc(C#N)c(Cl)c2)ccc1Cl` [F125, Methyl 3-chloro-6-(3-chloro-4-cyanophenyl) picolinate] here?
A: The pest or weed control at 140 g/ha was 0 to 29%.

same assay, conditions: post-emergence, 336 h, AMARE: redroot pigweed (Amaranthus retroflexus), 140 g ai/ha, 14 days after application, read-out: Visual Growth Reduction (%) 14 Days After Application, AMARE

Q: With `O=C(O)c1nc(-c2ccc(Cl)c3c2OC(F)(F)O3)ccc1Cl` [F67, 3-Chloro-6-(7-chloro-2,2-difluorobenzo[d] [1,3]dioxol-4-yl) picolinic acid] as the compound, how does the pest or weed control at 140 g/ha read?
A: The pest or weed control at 140 g/ha was 45 to 59%.

Q: `COC(=O)c1nc(-c2ccc(C#N)c(Cl)c2)ccc1Cl` [F125, Methyl 3-chloro-6-(3-chloro-4-cyanophenyl) picolinate] was tested. Which pest or weed control at 140 g/ha did it give?
A: Its pest or weed control at 140 g/ha is 0 to 29%.

same assay, conditions: post-emergence, 336 h, AVEFA: wild oat (Avena fatua), 140 g ai/ha, 14 days after application, read-out: Visual Growth Reduction (%) 14 Days After Application, AVEFA

Q: How did the pest or weed control at 140 g/ha turn out when `O=C(O)c1nc(-c2ccc(Cl)c3c2OC(F)(F)O3)ccc1Cl` [F67, 3-Chloro-6-(7-chloro-2,2-difluorobenzo[d] [1,3]dioxol-4-yl) picolinic acid] was run?
A: The pest or weed control at 140 g/ha was 0 to 29%.

Q: With `COC(=O)c1nc(-c2ccc(C#N)c(Cl)c2)ccc1Cl` [F125, Methyl 3-chloro-6-(3-chloro-4-cyanophenyl) picolinate] as the compound, how does the pest or weed control at 140 g/ha read?
A: Its pest or weed control at 140 g/ha is 0 to 29%.

same assay, conditions: post-emergence, 336 h, CHEAL: lambsquarters (Chenopodium album), 140 g ai/ha, 14 days after application, read-out: Visual Growth Reduction (%) 14 Days After Application, CHEAL

Q: Which pest or weed control at 140 g/ha does the source give for `O=C(O)c1nc(-c2ccc(Cl)c3c2OC(F)(F)O3)ccc1Cl` [F67, 3-Chloro-6-(7-chloro-2,2-difluorobenzo[d] [1,3]dioxol-4-yl) picolinic acid] here?
A: Its pest or weed control at 140 g/ha is 0 to 29%.

Q: `COC(=O)c1nc(-c2ccc(C#N)c(Cl)c2)ccc1Cl` [F125, Methyl 3-chloro-6-(3-chloro-4-cyanophenyl) picolinate] was tested. Which pest or weed control at 140 g/ha did it give?
A: Its pest or weed control at 140 g/ha is 45 to 59%.

same assay, conditions: post-emergence, 336 h, CIRAR: canada thistle (Cirsium arvense), 140 g ai/ha, 14 days after application, read-out: Visual Growth Reduction (%) 14 Days After Application, CIRAR

Q: For `O=C(O)c1nc(-c2ccc(Cl)c3c2OC(F)(F)O3)ccc1Cl` [F67, 3-Chloro-6-(7-chloro-2,2-difluorobenzo[d] [1,3]dioxol-4-yl) picolinic acid], which pest or weed control at 140 g/ha is on record?
A: Its pest or weed control at 140 g/ha is 0 to 29%.

Q: Which pest or weed control at 140 g/ha does the source give for `COC(=O)c1nc(-c2ccc(C#N)c(Cl)c2)ccc1Cl` [F125, Methyl 3-chloro-6-(3-chloro-4-cyanophenyl) picolinate] here?
A: The pest or weed control at 140 g/ha was 0 to 29%.

same assay, conditions: post-emergence, 336 h, CYPES: yellow nutsedge (Cyperus esculentus), 140 g ai/ha, 14 days after application, read-out: Visual Growth Reduction (%) 14 Days After Application, CYPES

Q: How did the pest or weed control at 140 g/ha turn out when `O=C(O)c1nc(-c2ccc(Cl)c3c2OC(F)(F)O3)ccc1Cl` [F67, 3-Chloro-6-(7-chloro-2,2-difluorobenzo[d] [1,3]dioxol-4-yl) picolinic acid] was run?
A: The pest or weed control at 140 g/ha was 0 to 29%.

Q: How did the pest or weed control at 140 g/ha turn out when `COC(=O)c1nc(-c2ccc(C#N)c(Cl)c2)ccc1Cl` [F125, Methyl 3-chloro-6-(3-chloro-4-cyanophenyl) picolinate] was run?
A: The pest or weed control at 140 g/ha was 0 to 29%.

same assay, conditions: post-emergence, 336 h, DIGSA: crabgrass (Digitaria sanguinalis), 140 g ai/ha, 14 days after application, read-out: Visual Growth Reduction (%) 14 Days After Application, DIGSA

Q: How did the pest or weed control at 140 g/ha turn out when `O=C(O)c1nc(-c2ccc(Cl)c3c2OC(F)(F)O3)ccc1Cl` [F67, 3-Chloro-6-(7-chloro-2,2-difluorobenzo[d] [1,3]dioxol-4-yl) picolinic acid] was run?
A: The pest or weed control at 140 g/ha was 0 to 29%.

Q: For `COC(=O)c1nc(-c2ccc(C#N)c(Cl)c2)ccc1Cl` [F125, Methyl 3-chloro-6-(3-chloro-4-cyanophenyl) picolinate], which pest or weed control at 140 g/ha is on record?
A: Its pest or weed control at 140 g/ha is 0 to 29%.

same assay, conditions: post-emergence, 336 h, ECHCG: barnyardgrass (Echinochloa crus-galli), 140 g ai/ha, 14 days after application, read-out: Visual Growth Reduction (%) 14 Days After Application, ECHCG

Q: How did the pest or weed control at 140 g/ha turn out when `O=C(O)c1nc(-c2ccc(Cl)c3c2OC(F)(F)O3)ccc1Cl` [F67, 3-Chloro-6-(7-chloro-2,2-difluorobenzo[d] [1,3]dioxol-4-yl) picolinic acid] was run?
A: The pest or weed control at 140 g/ha was 0 to 29%.

Q: How did the pest or weed control at 140 g/ha turn out when `COC(=O)c1nc(-c2ccc(C#N)c(Cl)c2)ccc1Cl` [F125, Methyl 3-chloro-6-(3-chloro-4-cyanophenyl) picolinate] was run?
A: The pest or weed control at 140 g/ha was 0 to 29%.

same assay, conditions: post-emergence, 336 h, IPOHE: ivy-leaf morning glory (Ipomoea hederacea), 140 g ai/ha, 14 days after application, read-out: Visual Growth Reduction (%) 14 Days After Application, IPOHE

Q: With `O=C(O)c1nc(-c2ccc(Cl)c3c2OC(F)(F)O3)ccc1Cl` [F67, 3-Chloro-6-(7-chloro-2,2-difluorobenzo[d] [1,3]dioxol-4-yl) picolinic acid] as the compound, how does the pest or weed control at 140 g/ha read?
A: Its pest or weed control at 140 g/ha is 0 to 29%.

Q: For `COC(=O)c1nc(-c2ccc(C#N)c(Cl)c2)ccc1Cl` [F125, Methyl 3-chloro-6-(3-chloro-4-cyanophenyl) picolinate], which pest or weed control at 140 g/ha is on record?
A: Its pest or weed control at 140 g/ha is 30 to 44%.

same assay, conditions: post-emergence, 336 h, KCHSC: kochia (Bassia scoparia), 140 g ai/ha, 14 days after application, read-out: Visual Growth Reduction (%) 14 Days After Application, KCHSC

Q: For `O=C(O)c1nc(-c2ccc(Cl)c3c2OC(F)(F)O3)ccc1Cl` [F67, 3-Chloro-6-(7-chloro-2,2-difluorobenzo[d] [1,3]dioxol-4-yl) picolinic acid], which pest or weed control at 140 g/ha is on record?
A: The pest or weed control at 140 g/ha was 0 to 29%.

Q: Which pest or weed control at 140 g/ha does the source give for `COC(=O)c1nc(-c2ccc(C#N)c(Cl)c2)ccc1Cl` [F125, Methyl 3-chloro-6-(3-chloro-4-cyanophenyl) picolinate] here?
A: The pest or weed control at 140 g/ha was 0 to 29%.

same assay, conditions: post-emergence, 336 h, ORYSA: rice (Oryza sativa), 140 g ai/ha, 14 days after application, read-out: Visual Growth Reduction (%) 14 Days After Application, ORYSA

Q: `O=C(O)c1nc(-c2ccc(Cl)c3c2OC(F)(F)O3)ccc1Cl` [F67, 3-Chloro-6-(7-chloro-2,2-difluorobenzo[d] [1,3]dioxol-4-yl) picolinic acid] was tested. Which pest or weed control at 140 g/ha did it give?
A: Its pest or weed control at 140 g/ha is 0 to 29%.

Q: How did the pest or weed control at 140 g/ha turn out when `COC(=O)c1nc(-c2ccc(C#N)c(Cl)c2)ccc1Cl` [F125, Methyl 3-chloro-6-(3-chloro-4-cyanophenyl) picolinate] was run?
A: Its pest or weed control at 140 g/ha is 0 to 29%.

same assay, conditions: post-emergence, 336 h, SETFA: giant foxtail (Setaria faberi), 140 g ai/ha, 14 days after application, read-out: Visual Growth Reduction (%) 14 Days After Application, SETFA

Q: Which pest or weed control at 140 g/ha does the source give for `O=C(O)c1nc(-c2ccc(Cl)c3c2OC(F)(F)O3)ccc1Cl` [F67, 3-Chloro-6-(7-chloro-2,2-difluorobenzo[d] [1,3]dioxol-4-yl) picolinic acid] here?
A: Its pest or weed control at 140 g/ha is 0 to 29%.

Q: With `COC(=O)c1nc(-c2ccc(C#N)c(Cl)c2)ccc1Cl` [F125, Methyl 3-chloro-6-(3-chloro-4-cyanophenyl) picolinate] as the compound, how does the pest or weed control at 140 g/ha read?
A: The pest or weed control at 140 g/ha was 0 to 29%.

same assay, conditions: post-emergence, 336 h, SORVU: grain sorghum (Sorghum vulgare), 140 g ai/ha, 14 days after application, read-out: Visual Growth Reduction (%) 14 Days After Application, SORVU

Q: With `O=C(O)c1nc(-c2ccc(Cl)c3c2OC(F)(F)O3)ccc1Cl` [F67, 3-Chloro-6-(7-chloro-2,2-difluorobenzo[d] [1,3]dioxol-4-yl) picolinic acid] as the compound, how does the pest or weed control at 140 g/ha read?
A: The pest or weed control at 140 g/ha was 0 to 29%.

Q: `COC(=O)c1nc(-c2ccc(C#N)c(Cl)c2)ccc1Cl` [F125, Methyl 3-chloro-6-(3-chloro-4-cyanophenyl) picolinate] was tested. Which pest or weed control at 140 g/ha did it give?
A: The pest or weed control at 140 g/ha was 0 to 29%.

same assay, conditions: post-emergence, 336 h, STEME: common chickweed (Stellaria media), 140 g ai/ha, 14 days after application, read-out: Visual Growth Reduction (%) 14 Days After Application, STEME

Q: With `COC(=O)c1nc(-c2ccc(C#N)c(Cl)c2)ccc1Cl` [F125, Methyl 3-chloro-6-(3-chloro-4-cyanophenyl) picolinate] as the compound, how does the pest or weed control at 140 g/ha read?
A: Its pest or weed control at 140 g/ha is 0 to 29%.

same assay, conditions: post-emergence, 336 h, TRZAS: wheat, spring (Triticum aestivum), 140 g ai/ha, 14 days after application, read-out: Visual Growth Reduction (%) 14 Days After Application, TRZAS

Q: How did the pest or weed control at 140 g/ha turn out when `COC(=O)c1nc(-c2ccc(C#N)c(Cl)c2)ccc1Cl` [F125, Methyl 3-chloro-6-(3-chloro-4-cyanophenyl) picolinate] was run?
A: Its pest or weed control at 140 g/ha is 0 to 29%.
